According to ChEMBL document CHEMBL1135090, “Non-peptide alpha(v)beta(3) antagonists. Part 3: identification of potent RGD mimetics incorporating novel beta-amino acids as aspartic acid replacements” (Bioorg Med Chem Lett, 2002):
One block for each compound: values may come before it.

Legend:
Integrin alpha-V/beta-3 = Integrin alpha-V/beta-3 (Homo sapiens, UniProt P05106+P06756); assay: Inhibition of high affinity radioligand binding to human alphaV-beta3 integrin; type: protein-complex assay
[1] = biological target: T1, Integrin alpha-IIb/beta-3 (Homo sapiens) (UniProt P05106+P08514); assay: Inhibition of ADP-stimulated alphaIIb-beta3 integrin mediated human platelet aggregation at 10 uM
[2] = biological target: T1, Integrin alpha-IIb/beta-3 (Homo sapiens); assay: Inhibition of ADP-stimulated alphaIIb-beta3 integrin mediated human platelet aggregation at 5.7 uM
[3] = Compound was tested for plasma clearance on administered orally as aqueous solutions at 1 mpk and by iv at 0.2 mpk; type: ADME, organism-based; conditions: 0.2 mg/kg
[4] = Bioavailability (dose 1 mg/kg p.o. and 0.2 mg/kg i.v.); type: ADME, organism-based; conditions: eutheria, in vivo, po
[5] = Partition coefficient (logP); type: physicochemical; conditions: octanol/water
[6] = biological target: T1, Integrin alpha-IIb/beta-3 (Homo sapiens); assay: Inhibition of ADP-stimulated alphaIIb-beta3 integrin mediated human platelet aggregation at 776 uM
[7] = biological target: T1, Integrin alpha-IIb/beta-3 (Homo sapiens); assay: Inhibition of ADP-stimulated alphaIIb-beta3 integrin mediated human platelet aggregation at 11 uM

Integrin alpha-V/beta-3, sequence (P05106 27-788 limits assumed): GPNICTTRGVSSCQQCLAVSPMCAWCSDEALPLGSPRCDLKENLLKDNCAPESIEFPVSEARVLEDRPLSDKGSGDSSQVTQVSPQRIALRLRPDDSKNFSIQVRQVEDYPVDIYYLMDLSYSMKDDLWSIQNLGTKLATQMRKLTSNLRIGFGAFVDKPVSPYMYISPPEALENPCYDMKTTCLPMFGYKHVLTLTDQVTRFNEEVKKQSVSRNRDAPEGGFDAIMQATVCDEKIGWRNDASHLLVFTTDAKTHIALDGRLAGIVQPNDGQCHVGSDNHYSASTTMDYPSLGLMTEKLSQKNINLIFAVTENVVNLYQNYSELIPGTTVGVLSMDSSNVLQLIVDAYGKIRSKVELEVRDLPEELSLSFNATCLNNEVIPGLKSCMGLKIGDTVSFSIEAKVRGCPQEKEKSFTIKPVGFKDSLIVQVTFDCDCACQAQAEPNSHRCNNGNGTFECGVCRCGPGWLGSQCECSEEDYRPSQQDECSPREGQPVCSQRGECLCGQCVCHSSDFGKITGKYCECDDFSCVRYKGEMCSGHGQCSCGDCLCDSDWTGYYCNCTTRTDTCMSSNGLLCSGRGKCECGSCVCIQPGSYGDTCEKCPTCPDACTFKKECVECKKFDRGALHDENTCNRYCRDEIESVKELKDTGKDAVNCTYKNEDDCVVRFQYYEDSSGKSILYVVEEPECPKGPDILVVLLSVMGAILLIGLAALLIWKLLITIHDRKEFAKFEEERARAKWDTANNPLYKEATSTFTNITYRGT
Integrin alpha-V/beta-3, sequence (P06756 31-889 limits assumed): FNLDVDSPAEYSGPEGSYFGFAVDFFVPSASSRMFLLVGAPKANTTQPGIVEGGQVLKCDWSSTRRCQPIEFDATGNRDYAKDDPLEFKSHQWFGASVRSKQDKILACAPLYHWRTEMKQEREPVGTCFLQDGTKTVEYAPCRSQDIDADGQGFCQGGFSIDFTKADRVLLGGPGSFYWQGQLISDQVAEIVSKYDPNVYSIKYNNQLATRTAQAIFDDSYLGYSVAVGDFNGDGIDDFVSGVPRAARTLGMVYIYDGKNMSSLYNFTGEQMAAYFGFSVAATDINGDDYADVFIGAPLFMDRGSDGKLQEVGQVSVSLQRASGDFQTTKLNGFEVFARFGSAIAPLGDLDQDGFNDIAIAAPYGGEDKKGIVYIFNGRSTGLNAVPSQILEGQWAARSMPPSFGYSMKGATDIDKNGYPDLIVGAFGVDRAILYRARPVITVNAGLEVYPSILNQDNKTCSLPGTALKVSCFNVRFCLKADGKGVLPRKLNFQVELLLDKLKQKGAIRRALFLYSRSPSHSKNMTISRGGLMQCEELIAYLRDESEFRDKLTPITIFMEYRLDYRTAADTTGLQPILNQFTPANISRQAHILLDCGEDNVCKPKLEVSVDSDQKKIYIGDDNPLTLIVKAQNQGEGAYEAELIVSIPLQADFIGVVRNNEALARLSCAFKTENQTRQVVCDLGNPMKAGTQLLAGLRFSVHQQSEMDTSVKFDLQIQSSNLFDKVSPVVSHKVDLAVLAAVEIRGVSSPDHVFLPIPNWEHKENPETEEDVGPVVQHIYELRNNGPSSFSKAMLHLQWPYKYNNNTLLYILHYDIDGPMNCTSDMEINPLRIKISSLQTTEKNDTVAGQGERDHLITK
Integrin alpha-V/beta-3, sequence (P06756 891-1048 limits assumed): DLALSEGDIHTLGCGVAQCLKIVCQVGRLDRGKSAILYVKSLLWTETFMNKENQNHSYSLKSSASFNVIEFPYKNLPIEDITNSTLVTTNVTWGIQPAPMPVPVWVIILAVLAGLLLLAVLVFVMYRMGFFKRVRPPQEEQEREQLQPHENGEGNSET

SMILES: O=C(O)C[C@H](NC(=O)CN1CC[C@H](CCc2ccc3c(n2)NCCC3)C1=O)c1cccc(F)c1
IC50 (Integrin alpha-V/beta-3): 1.8 nM | inhibition [1]: 6%

SMILES: O=C(O)C[C@H](NC(=O)CN1CC[C@H](CCc2ccc3c(n2)NCCC3)C1=O)c1ccc2c(c1)OCO2
inhibition [2]: 50% | clearance [3]: 25 mL/min/kg | bioavailability [4]: 30% | IC50 (Integrin alpha-V/beta-3): 0.32 nM | logP [5]: 0.26

SMILES: O=C(O)C[C@H](NC(=O)CN1CC[C@H](CCc2ccc3c(n2)NCCC3)C1=O)c1ccc2c(c1)OCC2
IC50 (Integrin alpha-V/beta-3): 0.11 nM | inhibition [1]: 60%

SMILES: COc1ccc([C@H](CC(=O)O)NC(=O)CN2CC[C@H](CCc3ccc4c(n3)NCCC4)C2=O)cc1F
IC50 (Integrin alpha-V/beta-3): 0.49 nM | inhibition [1]: 30%

SMILES: O=C(O)C[C@H](NC(=O)CN1CC[C@H](CCc2ccc3c(n2)NCCC3)C1=O)c1cnc2ccccc2c1
inhibition [6]: 50% | IC50 (Integrin alpha-V/beta-3): 0.04 nM

SMILES: O=C(O)C[C@H](NC(=O)CN1CC[C@H](CCc2ccc3c(n2)NCCC3)C1=O)c1ccc2c(c1)OC(F)(F)O2
IC50 (Integrin alpha-V/beta-3): 5.8 nM | inhibition [1]: 3% | logP [5]: 1.44

SMILES: O=C(O)C[C@H](NC(=O)CN1CC[C@H](CCc2ccc3c(n2)NCCC3)C1=O)c1ccc2nc(O)oc2c1
inhibition [1]: 19%

More lines, in order of falling IC50 (Integrin alpha-V/beta-3), values ahead:

IC50 (Integrin alpha-V/beta-3): 230 nM
SMILES: O=C(O)CCNC(=O)CN1CC[C@H](CCc2ccc3c(n2)NCCC3)C1=O

IC50 (Integrin alpha-V/beta-3): 29 nM
SMILES: O=C(O)C[C@H](NC(=O)CN1CC[C@H](CCc2ccc3c(n2)NCCC3)C1=O)c1ccc2c(c1)CCC2

IC50 (Integrin alpha-V/beta-3): 4 nM | inhibition [1]: 8%
SMILES: O=C(O)C[C@H](NC(=O)CN1CC[C@H](CCc2ccc3c(n2)NCCC3)C1=O)c1ccccc1

IC50 (Integrin alpha-V/beta-3): 3.7 nM | inhibition [1]: 19%
SMILES: O=C(O)C[C@H](NC(=O)CN1CC[C@H](CCc2ccc3c(n2)NCCC3)C1=O)c1ccc2ncsc2c1

IC50 (Integrin alpha-V/beta-3): 2.2 nM | inhibition [1]: 29%
SMILES: O=C(O)C[C@H](NC(=O)CN1CC[C@H](CCc2ccc3c(n2)NCCC3)C1=O)c1ccc2ccsc2c1

IC50 (Integrin alpha-V/beta-3): 1.1 nM | inhibition [1]: 20%
SMILES: O=C(O)C[C@H](NC(=O)CN1CC[C@H](CCc2ccc3c(n2)NCCC3)C1=O)c1ccc2c(c1)CCO2

IC50 (Integrin alpha-V/beta-3): 0.57 nM | inhibition [1]: 3%
SMILES: O=C(O)C[C@H](NC(=O)CN1CC[C@H](CCc2ccc3c(n2)NCCC3)C1=O)c1ccc(-c2ccccc2)c(F)c1

IC50 (Integrin alpha-V/beta-3): 0.35 nM | inhibition [7]: 50%
SMILES: O=C(O)C[C@H](NC(=O)CN1CC[C@H](CCc2ccc3c(n2)NCCC3)C1=O)c1cccnc1

IC50 (Integrin alpha-V/beta-3): 0.31 nM | inhibition [1]: 28%
SMILES: CCOc1ccc([C@H](CC(=O)O)NC(=O)CN2CC[C@H](CCc3ccc4c(n3)NCCC4)C2=O)cc1F

IC50 (Integrin alpha-V/beta-3): 0.29 nM
SMILES: O=C(O)C[C@H](NC(=O)CN1CC[C@H](CCc2ccc3c(n2)NCCC3)C1=O)c1ccc2[nH]c(=O)oc2c1
